Experimental data: ChEMBL document CHEMBL1671858, “Coprevalence of plasmid-mediated quinolone resistance determinants QepA, Qnr, and AAC(6')-Ib-cr among 16S rRNA methylase RmtB-producing Escherichia coli isolates from pigs” (2008)
≈ marks a conversion by molar mass, not a printed value.

Key:
Type in all cases: functional
Escherichia coli [1] = test: Antimicrobial activity against Escherichia coli isolate GZ3 PFGE type A1 harboring qepA gene by agar dilution method
Escherichia coli [2] = test: Antimicrobial activity against Escherichia coli isolate GZ5 PFGE type B harboring qepA gene by agar dilution method
Escherichia coli [3] = test: Antimicrobial activity against Escherichia coli isolate GZ6 PFGE type B harboring qepA gene by agar dilution method
Escherichia coli [4] = test: Antimicrobial activity against Escherichia coli isolate GZ9 PFGE type D harboring qepA gene by agar dilution method
Escherichia coli [5] = test: Antimicrobial activity against Escherichia coli isolate GZ11 PFGE type E harboring qepA gene by agar dilution method
Escherichia coli [6] = test: Antimicrobial activity against Escherichia coli isolate GZ14 PFGE type F harboring qepA gene by agar dilution method
Escherichia coli [7] = test: Antimicrobial activity against Escherichia coli isolate GZ15 PFGE type G harboring qepA gene by agar dilution method
Escherichia coli [8] = test: Antimicrobial activity against Escherichia coli isolate GZ16 PFGE type H harboring qepA gene by agar dilution method
Escherichia coli [9] = test: Antimicrobial activity against Escherichia coli isolate CQ15 PFGE type I1 harboring qepA gene by agar dilution method
Escherichia coli [10] = test: Antimicrobial activity against Escherichia coli isolate CQ18 PFGE type I2 harboring qepA gene by agar dilution method
Escherichia coli [11] = test: Antimicrobial activity against Escherichia coli isolate CQ5 PFGE type I2 harboring qepA gene by agar dilution method
Escherichia coli [12] = test: Antimicrobial activity against Escherichia coli isolate CQ4 PFGE type J1 harboring qepA gene by agar dilution method
Escherichia coli [13] = test: Antimicrobial activity against Escherichia coli isolate CQ26 PFGE type K harboring qepA gene by agar dilution method
Escherichia coli [14] = test: Antimicrobial activity against Escherichia coli isolate CQ10 PFGE type L harboring qepA gene by agar dilution method
Escherichia coli [15] = test: Antimicrobial activity against Escherichia coli isolate CQ14 PFGE type M harboring qepA gene by agar dilution method
Escherichia coli [16] = test: Antimicrobial activity against Escherichia coli isolate GZ7 PFGE type N harboring qepA gene by agar dilution method
Escherichia coli [17] = test: Antimicrobial activity against Escherichia coli isolate GZ1 PFGE type O harboring qepA gene by agar dilution method
Escherichia coli [18] = test: Antimicrobial activity against Escherichia coli isolate GZ2 PFGE type O harboring qepA gene by agar dilution method
Escherichia coli [19] = test: Antimicrobial activity against Escherichia coli isolate CQ22 PFGE type P harboring qepA gene by agar dilution method
Escherichia coli [20] = test: Antimicrobial activity against Escherichia coli isolate CQ13 PFGE type K harboring qepA gene by agar dilution method
Escherichia coli [21] = test: Antimicrobial activity against Escherichia coli isolate CQ6 PFGE type Q harboring qepA gene by agar dilution method
Escherichia coli [22] = test: Antimicrobial activity against Escherichia coli isolate CQ7 PFGE type Q harboring qepA gene by agar dilution method
Escherichia coli [23] = test: Antimicrobial activity against Escherichia coli isolate CQ1 PFGE type U harboring qepA gene by agar dilution method
Escherichia coli [24] = test: Antimicrobial activity against Escherichia coli isolate GZ3 transconjugant harboring 16S rRNA methylase RmtB and qepA by agar dilution method relative to recipient strain
Escherichia coli [25] = test: Antimicrobial activity against Escherichia coli isolate GZ9 transconjugant harboring 16S rRNA methylase RmtB and qepA by agar dilution method relative to recipient strain
Escherichia coli [26] = test: Antimicrobial activity against Escherichia coli isolate GZ11 transconjugant harboring 16S rRNA methylase RmtB and qepA by agar dilution method relative to recipient strain
Escherichia coli [27] = test: Antimicrobial activity against Escherichia coli isolate GZ12 transconjugant harboring 16S rRNA methylase RmtB and qepA by agar dilution method relative to recipient strain
Escherichia coli [28] = test: Antimicrobial activity against Escherichia coli isolate GZ13 transconjugant harboring 16S rRNA methylase RmtB and qepA by agar dilution method relative to recipient strain
Escherichia coli [29] = test: Antimicrobial activity against Escherichia coli isolate GZ14 transconjugant harboring 16S rRNA methylase RmtB and qepA by agar dilution method relative to recipient strain
Escherichia coli [30] = test: Antimicrobial activity against Escherichia coli isolate GZ15 transconjugant harboring 16S rRNA methylase RmtB and qepA by agar dilution method relative to recipient strain
Escherichia coli [31] = test: Antimicrobial activity against Escherichia coli isolate GZ16 transconjugant harboring 16S rRNA methylase RmtB and qepA by agar dilution method relative to recipient strain
Escherichia coli [32] = test: Antimicrobial activity against Escherichia coli isolate CQ15 transconjugant harboring 16S rRNA methylase RmtB and qepA by agar dilution method relative to recipient strain
Escherichia coli [33] = test: Antimicrobial activity against Escherichia coli isolate CQ5 transconjugant harboring 16S rRNA methylase RmtB and qepA by agar dilution method relative to recipient strain
Escherichia coli [34] = test: Antimicrobial activity against Escherichia coli isolate CQ4 transconjugant harboring 16S rRNA methylase RmtB and qepA by agar dilution method relative to recipient strain
Escherichia coli [35] = test: Antimicrobial activity against Escherichia coli isolate CQ20 transconjugant harboring 16S rRNA methylase RmtB and qepA by agar dilution method relative to recipient strain
Escherichia coli [36] = test: Antimicrobial activity against Escherichia coli isolate CQ26 transconjugant harboring 16S rRNA methylase RmtB and qepA by agar dilution method relative to recipient strain
Escherichia coli [37] = test: Antimicrobial activity against Escherichia coli isolate CQ10 transconjugant harboring 16S rRNA methylase RmtB and qepA by agar dilution method relative to recipient strain
Escherichia coli [38] = test: Antimicrobial activity against Escherichia coli isolate CQ14 transconjugant harboring 16S rRNA methylase RmtB and qepA by agar dilution method relative to recipient strain
Escherichia coli [39] = test: Antimicrobial activity against Escherichia coli isolate GZ7 transconjugant harboring 16S rRNA methylase RmtB and qepA and qnrS1 by agar dilution method relative to recipient strain
Escherichia coli [40] = test: Antimicrobial activity against Escherichia coli isolate GZ2 transconjugant harboring 16S rRNA methylase RmtB and qnrS1 by agar dilution method relative to recipient strain
Escherichia coli [41] = test: Antimicrobial activity against Escherichia coli isolate CQ22 transconjugant harboring 16S rRNA methylase RmtB and qnrS1 by agar dilution method relative to recipient strain
Escherichia coli [42] = test: Antimicrobial activity against Escherichia coli isolate CQ13 transconjugant harboring 16S rRNA methylase RmtB and qnrS1 by agar dilution method relative to recipient strain
Escherichia coli [43] = test: Antimicrobial activity against Escherichia coli isolate CQ6 transconjugant harboring 16S rRNA methylase RmtB and qepA, qnrS2, aac(6')-Ib-cr gene by agar dilution method relative to recipient strain
Escherichia coli [44] = test: Antimicrobial activity against Escherichia coli isolate CQ7 transconjugant harboring 16S rRNA methylase RmtB and qepA, qnrS2, aac(6')-Ib-cr gene by agar dilution method relative to recipient strain
Escherichia coli [45] = test: Antimicrobial activity against Escherichia coli isolate CQ12 transconjugant harboring 16S rRNA methylase RmtB and qepA, qnrS2, aac(6')-Ib-cr gene by agar dilution method relative to recipient strain
Escherichia coli [46] = test: Antimicrobial activity against Escherichia coli isolate CQ19 transconjugant harboring 16S rRNA methylase RmtB and qepA, aac(6')-Ib-cr gene by agar dilution method relative to recipient strain
Escherichia coli [47] = test: Antimicrobial activity against Escherichia coli isolate CQ1 transconjugant harboring 16S rRNA methylase RmtB and qnrB6 by agar dilution method relative to recipient strain

CCN1CCN(c2cc3c(cc2F)c(=O)c(C(=O)O)cn3C2CC2)CC1 [ENROFLOXACIN]
MIC (Escherichia coli [1]): 64 µg/mL (≈ 178 µM)
MIC (Escherichia coli [2]): 16 µg/mL (≈ 44.5 µM)
MIC (Escherichia coli [3]): 16 µg/mL (≈ 44.5 µM)
MIC (Escherichia coli [4]): 32 µg/mL (≈ 89 µM)
MIC (Escherichia coli [5]): 128 µg/mL (≈ 356 µM)
MIC (Escherichia coli [6]): 16 µg/mL (≈ 44.5 µM)
MIC (Escherichia coli [7]): 8 µg/mL (≈ 22.3 µM)
MIC (Escherichia coli [8]): > 128 µg/mL
MIC (Escherichia coli [9]): 2 µg/mL (≈ 5.56 µM)
MIC (Escherichia coli [10]): 2 µg/mL (≈ 5.56 µM)
MIC (Escherichia coli [11]): 4 µg/mL (≈ 11.1 µM)
MIC (Escherichia coli [12]): 0.03 µg/mL (≈ 0.0835 µM)
MIC (Escherichia coli [13]): 0.5 µg/mL (≈ 1.39 µM)
MIC (Escherichia coli [14]): 0.25 µg/mL (≈ 0.696 µM)
MIC (Escherichia coli [15]): 16 µg/mL (≈ 44.5 µM)
MIC (Escherichia coli [16]): 32 µg/mL (≈ 89 µM)
MIC (Escherichia coli [17]): 4 µg/mL (≈ 11.1 µM)
MIC (Escherichia coli [18]): 2 µg/mL (≈ 5.56 µM)
MIC (Escherichia coli [19]): 4 µg/mL (≈ 11.1 µM)
MIC (Escherichia coli [20]): 0.5 µg/mL (≈ 1.39 µM)
MIC (Escherichia coli [21]): 2 µg/mL (≈ 5.56 µM)
MIC (Escherichia coli [22]): 2 µg/mL (≈ 5.56 µM)
MIC (Escherichia coli [23]): 0.25 µg/mL (≈ 0.696 µM)
fold change (FC) (Escherichia coli [24]): 4
fold change (FC) (Escherichia coli [25]): 2
fold change (FC) (Escherichia coli [26]): 4
fold change (FC) (Escherichia coli [27]): 4
fold change (FC) (Escherichia coli [28]): 2
fold change (FC) (Escherichia coli [29]): 8
fold change (FC) (Escherichia coli [30]): 8
fold change (FC) (Escherichia coli [31]): 2
fold change (FC) (Escherichia coli [32]): 16
fold change (FC) (Escherichia coli [33]): 2
fold change (FC) (Escherichia coli [34]): 1
fold change (FC) (Escherichia coli [35]): 4
fold change (FC) (Escherichia coli [36]): 2
fold change (FC) (Escherichia coli [37]): 2
fold change (FC) (Escherichia coli [38]): 2
fold change (FC) (Escherichia coli [39]): 1
fold change (FC) (Escherichia coli [40]): 2
fold change (FC) (Escherichia coli [41]): 2
fold change (FC) (Escherichia coli [42]): 8
fold change (FC) (Escherichia coli [43]): 2
fold change (FC) (Escherichia coli [44]): 2
fold change (FC) (Escherichia coli [45]): 4
fold change (FC) (Escherichia coli [46]): 4
fold change (FC) (Escherichia coli [47]): 1
